Measurements from patent US11913884B2, “Visible light-activated dyes and methods of use thereof” (William Marsh Rice University, priority 2019, dated 2024).

Experiments:
[1] = UV-vis absorption and fluorescence spectra of thio-caged and uncaged fluorophores; type: physicochemical; conditions: DMSO (50 μM)
Experimental: Encouraged by the excellent photoactivation properties of SNile Red, Lawesson's reagent was employed to introduce thiocarbonyl moieties into several different fluorophores, such as phthalimide (PI), coumarin (Cou) and acridone (ACD), obtaining yields ranging from 20-80% (FIG. 1). Next, characterization of the spectroscopic and photochemical properties of these thiocaged fluorophores and their oxidized products using UV-vis and fluorescence spectroscopies was performed (Table 1). […] Double thiocarbonyl substitution on 4-dimethylaminophthalimide (4-DMAP, FIG. 1) produced an even larger bathochromic shift of 166 nm. […] It was hypothesized that the red-shift and enhanced absorption seen with thiocarbonyl compounds were due to the reduced energy gap between the HOMO-LUMO in these fluorophores. This is consistent with the computational results discussed below. […] To assess the efficiency of photoactivation for the various thio-caged fluorophores, UV-vis and fluorescence spectra were recorded after different irradiation times (FIGS. 4-8).
The ^1H NMR spectroscopic measurements were carried out using a Bruker-600 NMR at 600 MHz with tetramethysilane (TMS) as internal reference. Electrospray ionization (ESI) mass spectra were performed on a Bruker MicroToF ESI LC-MS System in positive-ion mode. The steady-state absorption spectra were obtained with a ThermoFisher Evolution 220 UV-Vis spectrophotometer in 1 cm path length quartz cells. Fluorescence spectra were recorded using spectrophotometer (SPEX FluoroLog-3). Quantum yield in DMSO was measured relative to the fluorescence of Rhodamine B (Φ=0.65) in ethanol or quinine sulfate (Φ=0.55) in 0.5 M·L^−1 H2SO4. FT-IR spectrum was taken on a PerkinElmer Spectrum 100 FT-IR Spectrometers. Confocal fluorescent images of living cells were performed using Nikon A1R-si Laser Scanning Confocal Microscope (Japan), equipped with lasers of 405/488/561/638 nm. STORM images were performed on a NSTORM (Nikon, Japan), featuring a CFI Apo TIRF 100× oil objective (NA 1.49) on an inverted Nikon Ti Eclipse microscope with a quad cube filter (Chroma, zt405/488/561/640 m-TRF), piezo stage, and Perfect Focus System (Nikon) for Z-stability. Light source are hand-held UV lamp, BlueView Transilluminator (470 nm centred, Vernier), Prior Lumen200 with 615/30 filter and 850 LED (Mouser Electronics).

[2] = Singlet oxygen quantum yield determination with DPBF; type: physicochemical; conditions: DCM, irradiation 615/30 nm, relative to methylene blue
Excerpt: To determine whether a minimal one atom sulfur-for-oxygen substitution within fluorophores can lead to fluorescence quenching, thio-caged Nile Red (SNile Red, FIG. 1) was synthesized, in which a carbonyl group was replaced with a thiocarbonyl moiety. Treatment of Nile Red with Lawesson's reagent in refluxing benzene produced the desired SNile Red in a yield of 40%. […] Irradiation of SNile Red with red light (615 nm, 0.4 μW cm-2) led to the regeneration of fluorescent Nile Red in a high yield (FIG. 2A). […] The A556/A652 value, representing the ratio of the absorbance maxima of Nile Red and SNile Red, increased from 0.25 to 30 after desulfuration reaction (FIG. 2B). Upon irradiation with red light, the fluorescence intensity of the desulfurated material at 626 nm increased 280-fold, accompanied by a change in fluorescence from dark to red (FIG. 2C). To evaluate the proper light source for SNile Red photoactivation, SNile Red was irradiated with either 470 nm, 615 nm, or 850 nm light for different times and fluorescence intensities at 626 nm were recorded. […] To further characterize the photoactivated product of SNile Red, ^1H NMR and ESI-MS spectral changes were measured in the process of photoactivation (FIG. 2A). […]
Singlet oxygen quantum yields were calculated according to the literature (Bonacin et al., 2009, Adarsh et al., 2010, and Li et al., 2013). […]

## CCN(CC)c1ccc2nc3c4ccccc4c(=S)cc-3oc2c1 [SNile Red]
[1]
  λem: 616 nm
[2]
  singlet oxygen quantum yield: 0.36
